The results in this text go back to publication PMC5423611, “An activity-integrated strategy of the identification, screening and determination of potential neuraminidase inhibitors from Radix Scutellariae” (PLoS ONE, 2017).

This assay has as its target T1, neuraminidase (NA), neuraminidase inhibitors screen kit.
T1 construct: enzyme of a commercial Beyotime screening kit
The assay is classed as biochemical.

The mark [1] stands for this setting: 2'-(4-methylumbelliferyl)-alpha-D-N-acetylneuraminic acid substrate, 37 °C, 30 min.

≈ marks a conversion by molar mass, not a printed value. Read-outs that look alike come from different tables or passages of the source.

As usually defined, the IC50 is the concentration that inhibits the measured activity by half. High values mean lower potency, low ones higher potency. On to `O=c1cc(-c2ccc(O)cc2)oc2cc(O)c(O)c(O)c12` [compound 10, scutellarein], for which the concentration for half-maximal inhibition (IC50) under setting [1] was 664.5 ± 26.2 µg/mL (≈ 2320 µM).

In turn, `COc1c(O)cc2oc(-c3ccccc3)cc(=O)c2c1O` [compound 25, oroxylin A] registered an IC50 under setting [1] of over 1000 µg/mL.

In turn, `O=c1cc(-c2ccccc2)oc2cc(O)cc(O)c12` [compound 24, chrysin] yielded an IC50 under setting [1] of 402.80 ± 67.8 µg/mL (≈ 1580 µM).

For the compound `O=C(O)[C@H]1O[C@@H](Oc2cc3oc(-c4ccc(O)cc4)cc(=O)c3c(O)c2O)[C@H](O)[C@@H](O)[C@@H]1O` [compound 5, scutellarin], the IC50 is 321.8 ± 62.8 µg/mL (≈ 696 µM).

Compound `O=C(O)[C@H]1O[C@@H](Oc2cc3oc(-c4ccccc4)cc(=O)c3c(O)c2O)[C@H](O)[C@@H](O)[C@@H]1O` [compound 11, baicalin] showed an IC50 under setting [1] of 267.3 ± 37.8 µg/mL (≈ 599 µM).

Turning to `COc1c(O[C@@H]2O[C@H](C(=O)O)[C@@H](O)[C@H](O)[C@H]2O)cc(O)c2c(=O)cc(-c3ccccc3)oc12` [compound 19, wogonoside], the half-maximal inhibitory concentration (IC50) under setting [1] turned out to be 428.3 ± 18.9 µg/mL (≈ 930 µM).

In the case of `COc1c(O)cc(O)c2c(=O)cc(-c3ccccc3)oc12` [compound 23, wogonin], the IC50 under setting [1] turned out to be 331.1 ± 49.4 µg/mL (≈ 1160 µM).

`O=C(O)[C@H]1O[C@@H](Oc2cc(O)c3c(=O)cc(-c4ccccc4)oc3c2)[C@H](O)[C@@H](O)[C@@H]1O` [compound 15, chrysin-7-O-glucuronide] displayed an IC50 under setting [1] of 493.6 ± 64.2 µg/mL (≈ 1150 µM).

For the compound `O=c1cc(-c2ccccc2)oc2cc(O)c(O)c(O)c12` [compound 22, baicalein], the IC50 under setting [1] was determined as 397.7 ± 9.91 µg/mL (≈ 1470 µM).
